As a reminder, the EC50 is the concentration needed to bring the measured effect to its halfway point.

Assay [1] has as its system Plasmodium falciparum. Briefly: Antiplasmodial activity against drug-sensitive Plasmodium falciparum 3D7 infected in Red blood cell assessed as growth inhibition measured after 72 hrs by LDH assay. The class given is functional, organism-based. Particulars: 3D7, Erythrocyte.
Assay [2] can be described thus: Inhibition of C-terminal 6-His tagged Plasmodium falciparum M1 aminopeptidase (195 to 1085 residues) expressed in Escherichia coli BL21(DE3) cells using H-Leu-NHMec as substrate assessed as apparent inhibition constant preincubated for 10 mins followed by substrate addition by spectrofluorimetric analysis. Particulars: read-out: Ki(app).
Assay [3] is described as follows: Inhibition of C-terminal 6-His tagged Plasmodium falciparum M17 aminopeptidase (85 to 605 residues) expressed in Escherichia coli BL21 (DE3) cells using H-Leu-NHMec as substrate assessed as apparent inhibition constant preincubated for 10 mins followed by substrate addition by spectrofluorimetric analysis. Particulars: read-out: Ki(app).
Assay [4] has as its system Plasmodium falciparum. Briefly: Inhibition of C-terminal 6-His tagged Plasmodium falciparum M17 aminopeptidase (85 to 605 residues) expressed in Escherichia coli BL21 (DE3) cells using H-Leu-NHMec as substrate at less than 500 nM preincubated for 10 mins followed by substrate addition by spectrofluorimetric analysis.

Active and inactive are the calls of the source. No cut-off for these calls is given here.

Take `O=C(CNc1cc(F)cc(F)c1)NC(C(=O)NO)c1ccc(Br)cc1` (stereo not given): the EC50 in the assay on Plasmodium falciparum [1] is 250 nM. Moreover, the values for the Ki in assay [2] and in assay [3] were 16 nM and over 500 nM, respectively.
The corresponding values for `O=C(CSc1ccccc1)NC(C(=O)NO)c1ccc(Br)cc1` (stereo not given) are 230 nM, 68 nM and 287 nM.
With `O=C(CNc1cccc(F)c1)NC(C(=O)NO)c1ccc(-c2cc(F)c(F)c(F)c2)cc1` (stereo not given), the Ki in assay [2] and in assay [3] was over 500 nM in each case.
Turning to `O=C(CNc1ccccc1F)NC(C(=O)NO)c1ccc(-c2cc(F)c(F)c(F)c2)cc1` (stereo not given), in the assay on Plasmodium falciparum [1], the concentration for a half-maximal effect (EC50) is 285 nM. Further, the Ki in assay [2] and in assay [3] was over 500 nM throughout.
With `CN(C)CC(=O)NC(C(=O)NO)c1ccc(-c2cc(F)c(F)c(F)c2)cc1` (stereo not given), the EC50 with Plasmodium falciparum [1] was 480 nM. For the same compound, the Ki in assay [2] was 185 nM; in assay [3], over 500 nM.
The corresponding values for `O=C(CSc1ccccc1)NC(C(=O)NO)c1ccc(-c2cc(F)c(F)c(F)c2)cc1` (stereo not given) are 430 nM, 195 nM and 238 nM.
The corresponding values for `O=C(COc1ccccc1)NC(C(=O)NO)c1ccc(Br)cc1` (stereo not given) are 620 nM, over 500 nM and 230 nM.
As for `O=C(CNc1ccc(F)cc1)NC(C(=O)NO)c1ccc(Cl)cc1` (stereo not given), the EC50 with Plasmodium falciparum [1] worked out at 220 nM. Moreover, the values for the Ki in assay [2] and in assay [3] were 49 nM and over 500 nM, respectively.
For the compound `COc1ccc(NCC(=O)NC(C(=O)NO)c2ccc(Br)cc2)cc1` (stereo not given), the inhibition result in the assay with Plasmodium falciparum [4] was “inactive”. Moreover, the EC50 in the assay with Plasmodium falciparum [1] came to 114 nM. The Ki is 88 nM in assay [2] and over 500 nM in assay [3].
The corresponding values for `COc1ccccc1NCC(=O)NC(C(=O)NO)c1ccc(Br)cc1` (stereo not given) are “inactive”, 145 nM, 128 nM and over 500 nM.
As for `CN1CCC(C(=O)NC(C(=O)NO)c2ccc(-c3cc(F)c(F)c(F)c3)cc2)C1` (stereo not given), the Ki in assay [2] and in assay [3] was over 500 nM throughout.
`CC(C)NC(=O)NC(C(=O)NO)c1ccc(-c2cc(F)c(F)c(F)c2)cc1` (stereo not given): the EC50 in the assay with Plasmodium falciparum [1] was 285 nM. For the same compound, the figures for the Ki in assay [2] and in assay [3] were over 500 nM and 120 nM, respectively.
The corresponding values for `O=C(CNc1ccc2cc[nH]c2c1)NC(C(=O)NO)c1ccc(Br)cc1` (stereo not given) are 155 nM, 35 nM and over 500 nM.
`COc1cccc(NCC(=O)NC(C(=O)NO)c2ccc(Br)cc2)c1` (stereo not given): the inhibition entry with Plasmodium falciparum [4] was “inactive”. Besides, the EC50 in the assay on Plasmodium falciparum [1] was found to be 102 nM. The results for the Ki in assay [2] and in assay [3] were 72 nM and over 500 nM, respectively.
`CCN(CC)CCCC(C)Nc1ccnc2cc(Cl)ccc12` (stereo not given) [CHLOROQUINE]: the EC50 with Plasmodium falciparum [1] is 33 nM.
As to `CN1CCCC1C(=O)NC(C(=O)NO)c1ccc(-c2cc(F)c(F)c(F)c2)cc1` (stereo not given), the Ki in assay [2] and in assay [3] was over 500 nM in each case.
On to `O=C(CN1CCCC1)NC(C(=O)NO)c1ccc(-c2cc(F)c(F)c(F)c2)cc1` (stereo not given), for which, in the assay with Plasmodium falciparum [1], the EC50 came out at 725 nM. Further, the Ki in assay [2] is 456 nM; in assay [3], over 500 nM.
The corresponding values for `O=C(COc1ccccc1)NC(C(=O)NO)c1ccc(-c2cc(F)c(F)c(F)c2)cc1` (stereo not given) are 1450 nM, 390 nM and 137 nM.
The corresponding values for `O=C(CNc1cccc(F)c1)NC(C(=O)NO)c1ccc(Cl)cc1` (stereo not given) are 175 nM, 49 nM and over 500 nM.
As for `O=C(CNc1ccc(F)c(F)c1)NC(C(=O)NO)c1ccc(Br)cc1` (stereo not given), the Ki in assay [2] and in assay [3] was over 500 nM each time.
`O=C(NC(C(=O)NO)c1ccc(-c2cc(F)c(F)c(F)c2)cc1)C1CCCN1` (stereo not given): the EC50 in the assay with Plasmodium falciparum [1] came to 625 nM. Moreover, the Ki was 330 nM in assay [2] and over 500 nM in assay [3].
With `O=C(CNc1ccccc1)NC(C(=O)NO)c1ccc(Cl)cc1` (stereo not given), in the assay on Plasmodium falciparum [1], the EC50 was 200 nM. The Ki in assay [2] is 79 nM; in assay [3], over 500 nM.
Take `COc1ccccc1NCC(=O)NC(C(=O)NO)c1ccc(-c2cc(F)c(F)c(F)c2)cc1` (stereo not given): the Ki in assay [2] and in assay [3] was over 500 nM in each case.
For `CC(C)(C)NC(=O)NC(C(=O)NO)c1ccc(-c2cc(F)c(F)c(F)c2)cc1` (stereo not given), the Ki in assay [2] is over 500 nM; in assay [3], 430 nM.
In the case of `CN(CC(=O)NC(C(=O)NO)c1ccc(Br)cc1)c1ccccc1` (stereo not given), the EC50 in the assay with Plasmodium falciparum [1] was 145 nM. For the same compound, the Ki in assay [2] is 18 nM; in assay [3], over 500 nM.
Take `O=C(NC(C(=O)NO)c1ccc(-c2cc(F)c(F)c(F)c2)cc1)C1CCO1` (stereo not given): the EC50 in the assay with Plasmodium falciparum [1] amounted to 350 nM. The Ki in assay [2] is 203 nM; in assay [3], over 500 nM.
On to `COc1cccc(NCC(=O)NC(C(=O)NO)c2ccc(-c3cc(F)c(F)c(F)c3)cc2)c1` (stereo not given), for which the Ki in assay [2] and in assay [3] was over 500 nM throughout.
Regarding `O=C(CCc1ccccc1)NC(C(=O)NO)c1ccc(Br)cc1` (stereo not given), in the assay on Plasmodium falciparum [1], the EC50 was determined as 205 nM. The Ki in assay [2] amounted to 222 nM; in assay [3], 14 nM.
As to `COc1ccc(NCC(=O)NC(C(=O)NO)c2ccc(-c3cc(F)c(F)c(F)c3)cc2)cc1` (stereo not given), the Ki in assay [2] and in assay [3] was over 500 nM in each case.
Take `O=C(CN1CCC1)NC(C(=O)NO)c1ccc(-c2cc(F)c(F)c(F)c2)cc1` (stereo not given): the EC50 with Plasmodium falciparum [1] was found to be 1800 nM. The Ki is 263 nM in assay [2] and over 500 nM in assay [3].
The corresponding values for `O=C(CNc1ccccc1F)NC(C(=O)NO)c1ccc(Br)cc1` (stereo not given) are 155 nM, 26 nM and over 500 nM.
`O=C(CNc1ccccc1)NC(C(=O)NO)c1ccc(Br)cc1` (stereo not given): the EC50 in the assay with Plasmodium falciparum [1] is 175 nM. For the same compound, the Ki in assay [2] was 36 nM; in assay [3] it was over 500 nM.
With `O=C(CN1CCCCC1)NC(C(=O)NO)c1ccc(-c2cc(F)c(F)c(F)c2)cc1` (stereo not given), the Ki in assay [2] and in assay [3] was over 500 nM each time.
For `O=C(NC1CCCC1)NC(C(=O)NO)c1ccc(-c2cc(F)c(F)c(F)c2)cc1` (stereo not given), the EC50 in the assay on Plasmodium falciparum [1] amounted to 370 nM. The Ki in assay [2] came out at 311 nM; in assay [3], 122 nM.
The corresponding values for `O=C(CCc1ccccc1)NC(C(=O)NO)c1ccc(-c2cc(F)c(F)c(F)c2)cc1` (stereo not given) are 460 nM, 246 nM and 70 nM.
Consider `CC(C)(N)CC(=O)NC(C(=O)NO)c1ccc(-c2cc(F)c(F)c(F)c2)cc1` (stereo not given), for which the EC50 with Plasmodium falciparum [1] was 1350 nM. Besides, the Ki in assay [2] turned out to be 320 nM; in assay [3] it was 28 nM.
For `O=C(CNc1ccc(F)cc1)NC(C(=O)NO)c1ccc(-c2cc(F)c(F)c(F)c2)cc1` (stereo not given), the Ki in assay [2] and in assay [3] was over 500 nM each time.
Take `O=C(NC(C(=O)NO)c1ccc(Br)cc1)c1cc2ccccc2[nH]1` (stereo not given): the Ki in assay [2] and in assay [3] was over 500 nM each time.
Consider `CN1CCC1C(=O)NC(C(=O)NO)c1ccc(-c2cc(F)c(F)c(F)c2)cc1` (stereo not given), for which the Ki in assay [2] and in assay [3] was over 500 nM throughout.
Take `CN1CC(C(=O)NC(C(=O)NO)c2ccc(-c3cc(F)c(F)c(F)c3)cc2)C1` (stereo not given): the Ki in assay [2] and in assay [3] was over 500 nM in each case.
With `CC(C)(O)CC(=O)NC(C(=O)NO)c1ccc(-c2cc(F)c(F)c(F)c2)cc1` (stereo not given), the EC50 in the assay with Plasmodium falciparum [1] stood at 155 nM. The Ki was determined as 154 nM in assay [2] and 90 nM in assay [3].
For the compound `O=C(NC(C(=O)NO)c1ccc(-c2cc(F)c(F)c(F)c2)cc1)C1CCNC1` (stereo not given), the Ki in assay [2] and in assay [3] was over 500 nM each time.
Take `O=C(CNc1ccc(F)cc1)NC(C(=O)NO)c1ccc(Br)cc1` (stereo not given): the EC50 with Plasmodium falciparum [1] stood at 250 nM. For the same compound, the Ki in assay [2] was 38 nM; in assay [3] it was over 500 nM.
In the case of `O=C(NC(C(=O)NO)c1ccc(-c2cc(F)c(F)c(F)c2)cc1)C1CCOC1` (stereo not given), in the assay on Plasmodium falciparum [1], the EC50 came out at 605 nM. Moreover, the Ki in assay [2] worked out at 259 nM; in assay [3] it was 307 nM.
The corresponding values for `CC(C)(N)C(=O)NC(C(=O)NO)c1ccc(-c2cc(F)c(F)c(F)c2)cc1` (stereo not given) are 1200 nM, 227 nM and over 500 nM.
Consider `O=C(NC(C(=O)NO)c1ccc(-c2cc(F)c(F)c(F)c2)cc1)C1CCN1` (stereo not given), for which the Ki in assay [2] and in assay [3] was over 500 nM in each case.
In the case of `CC(C)(C)C(=O)NC(C(=O)NO)c1ccc(-c2cc(F)c(F)c(F)c2)cc1` (stereo not given), in the assay with Plasmodium falciparum [1], the EC50 was found to be 340 nM.
As to `O=C(NC(C(=O)NO)c1ccc(-c2cc(F)c(F)c(F)c2)cc1)C1CNC1` (stereo not given), the Ki in assay [2] and in assay [3] was over 500 nM in each case.
Turning to `O=C(CNc1cccc(F)c1)NC(C(=O)NO)c1ccc(Br)cc1` (stereo not given), in the assay with Plasmodium falciparum [1], the EC50 is 135 nM. Also, the values for the Ki in assay [2] and in assay [3] were 21 nM and over 500 nM, respectively.
The corresponding values for `O=C(CNc1ccc2cc[nH]c2c1)NC(C(=O)NO)c1ccc(-c2cc(F)c(F)c(F)c2)cc1` (stereo not given) are 220 nM, 146 nM and over 500 nM.
The corresponding values for `CN(C)C(C)(C)CC(=O)NC(C(=O)NO)c1ccc(-c2cc(F)c(F)c(F)c2)cc1` (stereo not given) are 825 nM, 500 nM and 293 nM.
For the compound `CN(C)C(C)(C)C(=O)NC(C(=O)NO)c1ccc(-c2cc(F)c(F)c(F)c2)cc1` (stereo not given), the Ki in assay [2] and in assay [3] was over 500 nM throughout.
In the case of `CN(CC(=O)NC(C(=O)NO)c1ccc(-c2cc(F)c(F)c(F)c2)cc1)c1ccccc1` (stereo not given), the Ki in assay [2] and in assay [3] was over 500 nM throughout.
As for `O=C(CNc1ccc(F)c(F)c1)NC(C(=O)NO)c1ccc(-c2cc(F)c(F)c(F)c2)cc1` (stereo not given), the Ki in assay [2] and in assay [3] was over 500 nM each time.
Turning to `CC1(C(=O)NC(C(=O)NO)c2ccc(-c3cc(F)c(F)c(F)c3)cc2)COC1` (stereo not given), the EC50 in the assay on Plasmodium falciparum [1] is 610 nM. Further, the Ki is 439 nM in assay [2] and 294 nM in assay [3].

The record behind these values is ChEMBL document CHEMBL5325407, “Structure-based development of potent Plasmodium falciparum M1 and M17 aminopeptidase selective and dual inhibitors via S1'-region optimisation” (Eur J Med Chem, 2023).
